In paper PMC7224190, “Pharmacological inhibition of PRMT7 links arginine monomethylation to the cellular stress response” (Nature Communications, 2020):

Assays:
Experiment in all cases: biochemical
Parameters in all cases: radiometric methyltransferase selectivity assay with tritiated SAM, per cent activity
Conditions in all cases: read-out: % of control remaining
PRC2-EZH2 = PRC2-EZH2 (Homo sapiens, UniProt Q15910)
SUV39H1 = target: T1, SUV39H1 (Homo sapiens, UniProt O43463)
T1 sequence (O43463 1-412): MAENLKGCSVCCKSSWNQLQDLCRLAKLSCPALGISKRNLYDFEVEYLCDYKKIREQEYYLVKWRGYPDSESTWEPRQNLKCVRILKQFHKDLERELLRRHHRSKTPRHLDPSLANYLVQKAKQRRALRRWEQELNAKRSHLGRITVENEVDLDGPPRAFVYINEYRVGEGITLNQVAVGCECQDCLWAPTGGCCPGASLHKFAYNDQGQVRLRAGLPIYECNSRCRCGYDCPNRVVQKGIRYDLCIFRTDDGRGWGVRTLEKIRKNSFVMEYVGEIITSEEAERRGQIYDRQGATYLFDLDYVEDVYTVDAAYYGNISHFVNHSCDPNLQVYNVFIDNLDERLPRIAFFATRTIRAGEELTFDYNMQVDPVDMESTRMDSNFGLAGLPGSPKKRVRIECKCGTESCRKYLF
Method in brief: (§1)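 Radiometric methyltransferase assays with ³H-SAM and substrate near apparent Km, compound tested at 1 and 10 μM. Methyl incorporation into biotinylated substrate read by scintillation proximity after guanidine quench; no-compound = 100%, no-enzyme = 0% activity.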

PRMT3 = PRMT3 (Homo sapiens, UniProt O60678)
Chain of PRMT3 (O60678 whole entry): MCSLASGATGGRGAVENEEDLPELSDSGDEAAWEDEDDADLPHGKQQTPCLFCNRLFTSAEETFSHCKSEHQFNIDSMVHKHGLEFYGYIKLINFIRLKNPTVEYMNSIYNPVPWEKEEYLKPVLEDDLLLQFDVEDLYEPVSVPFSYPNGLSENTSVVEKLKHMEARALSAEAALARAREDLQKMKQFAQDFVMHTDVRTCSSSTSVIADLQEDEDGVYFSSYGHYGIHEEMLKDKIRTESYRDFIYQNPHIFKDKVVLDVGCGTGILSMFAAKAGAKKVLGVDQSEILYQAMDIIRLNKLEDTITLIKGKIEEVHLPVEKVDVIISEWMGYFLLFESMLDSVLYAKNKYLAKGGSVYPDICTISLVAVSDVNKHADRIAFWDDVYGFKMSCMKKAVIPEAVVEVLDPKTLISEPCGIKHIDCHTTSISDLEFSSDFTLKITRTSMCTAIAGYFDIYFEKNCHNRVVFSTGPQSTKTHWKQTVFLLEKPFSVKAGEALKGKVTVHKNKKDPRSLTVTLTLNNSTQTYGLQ
Method in brief: as §1

PRMT5-MEP50 = PRMT5-MEP50 (Homo sapiens, UniProt O14744)
Chain of PRMT5-MEP50 (O14744 whole entry): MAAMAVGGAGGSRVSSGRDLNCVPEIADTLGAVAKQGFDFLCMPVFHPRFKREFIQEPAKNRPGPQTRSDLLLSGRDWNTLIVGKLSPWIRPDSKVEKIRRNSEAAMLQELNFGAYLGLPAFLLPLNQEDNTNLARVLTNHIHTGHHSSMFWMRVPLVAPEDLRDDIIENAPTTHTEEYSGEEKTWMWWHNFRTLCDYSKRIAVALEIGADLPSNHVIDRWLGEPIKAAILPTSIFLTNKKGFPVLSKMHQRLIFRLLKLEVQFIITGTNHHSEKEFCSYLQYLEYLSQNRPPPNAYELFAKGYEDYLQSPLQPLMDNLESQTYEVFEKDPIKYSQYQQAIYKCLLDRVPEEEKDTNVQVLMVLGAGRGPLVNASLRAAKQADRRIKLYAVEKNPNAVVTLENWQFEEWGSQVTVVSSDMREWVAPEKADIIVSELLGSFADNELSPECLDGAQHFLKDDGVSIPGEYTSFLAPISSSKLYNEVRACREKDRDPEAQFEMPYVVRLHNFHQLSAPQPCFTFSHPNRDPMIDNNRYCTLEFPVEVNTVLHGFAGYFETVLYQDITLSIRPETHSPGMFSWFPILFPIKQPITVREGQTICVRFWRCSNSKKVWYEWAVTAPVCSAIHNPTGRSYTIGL
Chain of PRMT5-MEP50 (Q9BQA1 whole entry partner): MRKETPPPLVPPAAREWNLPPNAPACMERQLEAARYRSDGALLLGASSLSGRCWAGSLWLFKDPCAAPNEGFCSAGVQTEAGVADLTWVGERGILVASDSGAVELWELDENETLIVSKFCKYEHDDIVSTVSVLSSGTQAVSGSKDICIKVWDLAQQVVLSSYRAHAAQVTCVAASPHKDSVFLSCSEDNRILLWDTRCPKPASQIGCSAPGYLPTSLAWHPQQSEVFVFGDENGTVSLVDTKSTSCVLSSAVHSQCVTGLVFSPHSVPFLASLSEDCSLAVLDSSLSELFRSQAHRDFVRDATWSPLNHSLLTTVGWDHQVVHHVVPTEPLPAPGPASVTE
Method in brief: as §1

GLP = target: T2, GLP (Homo sapiens, UniProt Q9H9B1)
T2 construct: gene EHMT1
T2 sequence (Q9H9B1 1-1298): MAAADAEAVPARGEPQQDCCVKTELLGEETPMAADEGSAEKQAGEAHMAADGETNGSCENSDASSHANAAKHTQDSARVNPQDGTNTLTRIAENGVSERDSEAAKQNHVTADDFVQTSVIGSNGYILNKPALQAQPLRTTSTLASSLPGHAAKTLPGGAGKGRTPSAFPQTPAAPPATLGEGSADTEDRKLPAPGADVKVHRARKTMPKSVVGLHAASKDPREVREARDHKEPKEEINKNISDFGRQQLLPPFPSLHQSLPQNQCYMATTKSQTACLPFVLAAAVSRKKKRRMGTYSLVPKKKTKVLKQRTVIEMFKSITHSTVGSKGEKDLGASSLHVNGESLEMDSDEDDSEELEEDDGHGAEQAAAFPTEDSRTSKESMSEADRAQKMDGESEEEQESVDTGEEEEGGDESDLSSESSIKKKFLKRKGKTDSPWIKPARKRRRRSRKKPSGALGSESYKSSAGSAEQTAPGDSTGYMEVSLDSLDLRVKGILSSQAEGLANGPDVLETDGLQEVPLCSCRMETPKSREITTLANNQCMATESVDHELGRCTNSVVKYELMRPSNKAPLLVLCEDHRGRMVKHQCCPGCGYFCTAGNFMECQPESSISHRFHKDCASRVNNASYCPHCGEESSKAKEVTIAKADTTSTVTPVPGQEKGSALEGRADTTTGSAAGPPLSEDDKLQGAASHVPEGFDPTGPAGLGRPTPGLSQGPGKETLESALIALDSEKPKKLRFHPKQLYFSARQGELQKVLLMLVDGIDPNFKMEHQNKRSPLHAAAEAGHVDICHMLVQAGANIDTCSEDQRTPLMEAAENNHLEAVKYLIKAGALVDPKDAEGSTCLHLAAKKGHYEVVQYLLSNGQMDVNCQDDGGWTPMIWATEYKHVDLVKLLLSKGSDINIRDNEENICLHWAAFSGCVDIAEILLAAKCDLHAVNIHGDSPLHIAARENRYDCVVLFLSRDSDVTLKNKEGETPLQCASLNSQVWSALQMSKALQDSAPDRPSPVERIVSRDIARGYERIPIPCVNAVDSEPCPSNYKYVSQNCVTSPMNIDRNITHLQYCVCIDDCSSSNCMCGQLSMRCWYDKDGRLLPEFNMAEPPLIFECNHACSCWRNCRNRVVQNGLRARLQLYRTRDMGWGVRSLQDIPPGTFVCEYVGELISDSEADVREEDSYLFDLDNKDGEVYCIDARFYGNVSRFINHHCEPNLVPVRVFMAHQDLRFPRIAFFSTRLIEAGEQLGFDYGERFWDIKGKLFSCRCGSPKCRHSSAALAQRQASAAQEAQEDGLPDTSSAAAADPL
Method in brief: as §1

Chain of PRC2-EZH2 (Q15910 whole entry): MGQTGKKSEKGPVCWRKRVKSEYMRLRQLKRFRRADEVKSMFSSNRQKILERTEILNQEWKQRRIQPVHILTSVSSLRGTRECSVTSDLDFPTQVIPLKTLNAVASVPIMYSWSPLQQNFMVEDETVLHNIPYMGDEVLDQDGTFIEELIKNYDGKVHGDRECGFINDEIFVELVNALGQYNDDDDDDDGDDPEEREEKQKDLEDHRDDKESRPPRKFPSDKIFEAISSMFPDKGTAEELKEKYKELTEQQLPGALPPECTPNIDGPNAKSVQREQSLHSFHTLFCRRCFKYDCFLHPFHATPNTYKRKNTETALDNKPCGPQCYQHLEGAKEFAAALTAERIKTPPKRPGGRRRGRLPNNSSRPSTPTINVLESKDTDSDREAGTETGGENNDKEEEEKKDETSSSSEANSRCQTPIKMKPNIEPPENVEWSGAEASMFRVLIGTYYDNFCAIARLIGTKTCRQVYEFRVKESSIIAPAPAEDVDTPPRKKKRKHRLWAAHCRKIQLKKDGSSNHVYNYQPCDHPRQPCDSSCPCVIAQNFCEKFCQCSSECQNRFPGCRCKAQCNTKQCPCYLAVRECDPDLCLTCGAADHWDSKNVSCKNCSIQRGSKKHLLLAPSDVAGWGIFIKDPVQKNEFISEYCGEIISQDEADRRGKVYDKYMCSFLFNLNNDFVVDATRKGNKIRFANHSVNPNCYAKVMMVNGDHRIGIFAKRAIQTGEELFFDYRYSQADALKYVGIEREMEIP
Chain of PRC2-EZH2 (O75530 whole entry partner): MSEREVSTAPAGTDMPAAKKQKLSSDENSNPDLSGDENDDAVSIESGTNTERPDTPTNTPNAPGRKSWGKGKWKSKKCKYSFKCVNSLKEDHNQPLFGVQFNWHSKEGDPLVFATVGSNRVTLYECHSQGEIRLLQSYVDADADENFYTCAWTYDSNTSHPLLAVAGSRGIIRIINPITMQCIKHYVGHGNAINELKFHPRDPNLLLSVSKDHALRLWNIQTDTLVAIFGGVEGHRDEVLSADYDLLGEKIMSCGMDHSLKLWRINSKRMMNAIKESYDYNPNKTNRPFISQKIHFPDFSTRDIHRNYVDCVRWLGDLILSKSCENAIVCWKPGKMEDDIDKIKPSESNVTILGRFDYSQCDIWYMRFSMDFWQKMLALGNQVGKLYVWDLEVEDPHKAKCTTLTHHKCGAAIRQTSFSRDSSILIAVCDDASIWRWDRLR
Chain of PRC2-EZH2 (Q15022 whole entry partner): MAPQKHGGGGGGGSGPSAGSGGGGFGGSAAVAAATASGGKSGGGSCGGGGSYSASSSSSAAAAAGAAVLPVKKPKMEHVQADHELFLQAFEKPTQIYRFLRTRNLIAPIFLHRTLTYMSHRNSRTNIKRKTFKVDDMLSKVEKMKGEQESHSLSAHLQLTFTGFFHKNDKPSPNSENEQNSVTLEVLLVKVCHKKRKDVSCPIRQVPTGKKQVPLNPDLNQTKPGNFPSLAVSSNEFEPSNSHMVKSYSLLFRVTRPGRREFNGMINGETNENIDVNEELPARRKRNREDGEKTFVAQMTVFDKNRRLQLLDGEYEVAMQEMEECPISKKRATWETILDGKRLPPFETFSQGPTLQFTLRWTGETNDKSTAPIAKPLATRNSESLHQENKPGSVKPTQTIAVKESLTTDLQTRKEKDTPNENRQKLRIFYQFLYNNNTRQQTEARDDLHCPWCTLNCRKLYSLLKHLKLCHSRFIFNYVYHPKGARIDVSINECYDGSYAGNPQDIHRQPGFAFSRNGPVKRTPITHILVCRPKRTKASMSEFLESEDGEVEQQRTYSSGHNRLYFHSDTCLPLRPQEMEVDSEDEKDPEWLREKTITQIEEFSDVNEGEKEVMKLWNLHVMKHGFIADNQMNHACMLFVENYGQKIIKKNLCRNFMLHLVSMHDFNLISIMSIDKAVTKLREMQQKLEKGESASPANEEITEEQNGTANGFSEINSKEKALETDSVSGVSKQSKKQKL

## CC1(C)O[C@@H]2[C@H](O1)[C@@H](CSCCCCNCc1cccc(-c3ccc(Cl)cc3)c1)O[C@H]2n1cnc2c(N)ncnc21 [SGC8158N]
PRC2-EZH2
  remaining activity at 1 µM: 93%
  remaining activity at 10 µM: 88%
SUV39H1
  remaining activity at 1 µM: 98%
  remaining activity at 10 µM: 78%
PRMT3
  remaining activity at 1 µM: 96%
  remaining activity at 10 µM: 96%
PRMT5-MEP50
  remaining activity at 1 µM: 101%
  remaining activity at 10 µM: 91%
GLP
  remaining activity at 1 µM: 95%
  remaining activity at 10 µM: 90%

## Nc1ncnc2c1ncn2[C@@H]1O[C@H](CSCCCCNCc2cccc(-c3ccc(Cl)cc3)c2)[C@@H](O)[C@H]1O [SGC8158]
PRC2-EZH2
  remaining activity at 1 µM: 105%
  remaining activity at 10 µM: 94%
SUV39H1
  remaining activity at 1 µM: 94%
  remaining activity at 10 µM: 90%
PRMT3
  remaining activity at 1 µM: 57%
  remaining activity at 10 µM: 6%
PRMT5-MEP50
  remaining activity at 1 µM: 15%
  remaining activity at 10 µM: 2%
GLP
  remaining activity at 1 µM: 99%
  remaining activity at 10 µM: 95%
